We go through one compound from US20030203373A1 (priority 2002, published 2003).

SMILES strings stand for the structures.

The test relates to normotensive Wister rats. The experiment in a line: Bradykinin-potentiating effect on blood pressure in anaesthetized normotensive rats. It is filed as in vivo, rat. The following applies: Captopril 1.5 × 10^−4 M + Bradykinin 2.5 × 10^−6 M. The procedure:
In the in vivo experiments with normotensive rats the animals were previously anaesthetized and after blood pressure stabilization treated with a constant amount of bradykinin. Subsequently, either Captopril or human BPP were administered, again followed by a constant amount of bradykinin. Afterwards the maximum blood pressure drop was determined and, on the basis of bradykinin as a factor 1, the potentiating factor was determined. In the same way, the systolic and diastolic blood pressure, the percentage middle pressure decrease and the time required to come back to the baseline values were measured (see tables 4a to 4j). A detailed experimental description is given below.
2. Measurement of Blood Pressure in Normotensive and Hypertensive Rats
The trials were conducted on female anaesthetized normotensive Wister rats with weight ranging from 210 to 240 g.
The peptide pANP48-57 used for the in vivo assays was synthesized by Biosynthan (Berlin) with a HPLC-determined purity of 98%.
Anaesthetizing was performed by i.p.-administration of 1 ml/kg Ketavit (100 mg/ml)+Rampun (2%).
In order to conduct the blood pressure measurement, a polyethylene catheter was introduced into the Aorta femuralis and connected with a pressure transducer. A Statham-P23A pressure-transducer was linked to a Gould Polygraph and used to determine the arterial blood pressure. A Hg-manometer was used to calibrate the system.
All substances were dissolved and diluted in a physiological sodium chloride solution and introduced into the Vena jugularis via a catheter.
After stabilization of blood pressure (after about 10 minutes) […] body weight of a 2,5 μM bradykinin-solution (Sigma) was administered.
The middle pressure was determined from the measured diastolic (pd) and systolic (ps) blood pressure by using the following formula: pm=(ps−Pd)×0,42+pd.

`C[C@H](CS)C(=O)N1CCC[C@H]1C(=O)O` [Captopril, reference compound]: the “potentiating factor (factor by which the blood pressure reducing effect of Bradykinin is potentiated, Bradykinin = 1)” value is listed as 2. For the same compound, the “maximal drop of blood pressure” value (normotensive rats) is reported as 56% ± 17.3.
